Measured values reported in US20060069132A1, “Azolecarboxamide herbicides” (priority 2004, published 2006).

How the values were obtained:
Surinam grass = experiment: Test B pre-/postemergence herbicide test; format: in vivo, Urochloa decumbens; conditions: for Plant response rating, Surinam Grass: preemergence; for Surinam Grass plant response rating: postemergence, visual rating, scale 0 (no effect) to 100 (complete control)
Summary of the method: (§1)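 Greenhouse pot assay with simultaneous preemergence (treated seed) and postemergence (2–18 cm seedlings) applications of surfactant-containing, non-phytotoxic solvent formulations. Response scored visually 13–15 days later on a 0–100 scale, 100 meaning complete control.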

[1] = tested on: small flower umbrella sedge; experiment: Test B flooded paddy test; format: in vivo, Cyperus difformis; conditions: 1000 g ai/ha, visual rating, scale 0 to 100 (0 no effect, 100 complete control), 13 to 15 days
Summary of the method: (§2)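 Treated at 2-leaf (paddy) or 1–4-leaf, 2–18 cm (postemergence); greenhouse 13–15 d; visual score vs control, 0 none to 100 complete control; dash = not tested.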

pigweed = experiment: Test B pre-/postemergence herbicide test; format: in vivo, Amaranthus retroflexus; conditions: for Plant response rating, Pigweed: preemergence; for Pigweed plant response rating: postemergence, visual rating, scale 0 (no effect) to 100 (complete control)
Summary of the method: as §1

morningglory [2] = experiment: Test B pre-/postemergence herbicide test; format: in vivo, Ipomoea coccinea; conditions: for Plant response rating, Morningglory: preemergence; for Morningglory plant response rating: postemergence, visual rating, scale 0 (no effect) to 100 (complete control)
Summary of the method: (§3)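 Herbicidal effect was judged by eye on a 0–100 scale after plants stood 13 to 15 days in the greenhouse following pre- or postemergence treatment with surfactant-containing formulations.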

velvetleaf [3] = experiment: Test A pre-/postemergence herbicide test; format: in vivo, Abutilon theophrasti
Summary of the method: (§4)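 Visual injury rating on a 0–100 scale (0 no effect, 100 complete control) versus untreated controls, about ten days after treatment in greenhouse. Pre: directed soil spray onto seeded sandy loam. Post: spray to runoff on plants 2–10 cm tall at one- to two-leaf stage.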

giant foxtail [4] = experiment: Test B pre-/postemergence herbicide test; format: in vivo, Setaria faberi; conditions: for Plant response rating, Foxtail, Giant: preemergence; for Foxtail, Giant plant response rating: postemergence, visual rating, scale 0 (no effect) to 100 (complete control)
Summary of the method: as §1

barnyardgrass [5] = experiment: Test B flooded paddy test; format: in vivo, Echinochloa crus-galli; conditions: 1000 g ai/ha, visual rating, scale 0 to 100 (0 no effect, 100 complete control), 13 to 15 days
Summary of the method: as §2

barnyardgrass [6] = experiment: Test A pre-/postemergence herbicide test; format: in vivo, Echinochloa crus-galli
Summary of the method: as §4

redroot pigweed = experiment: Test A pre-/postemergence herbicide test; format: in vivo, Amaranthus retroflexus
Summary of the method: as §4

wild oat = experiment: Test B postemergence herbicide test; format: in vivo, Avena fatua; conditions: postemergence, visual rating, scale 0 (no effect) to 100 (complete control)
Summary of the method: (§5)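 Visual ratings, 0 (no effect) to 100 (complete control), made versus controls after 13–15 d greenhouse. Paddy plants treated at 2-leaf stage; postemergence plants at 1- to 4-leaf stage, 2–18 cm tall.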

rice [7] = experiment: Test B flooded paddy test; format: in vivo, Oryza sativa; conditions: 1000 g ai/ha, visual rating, scale 0 to 100 (0 no effect, 100 complete control), 13 to 15 days
Summary of the method: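 Greenhouse test; postemergence application to plants at 1–4 leaves (2–18 cm); paddy species at 2 leaves; evaluated visually vs controls at 13–15 days; scale 0–100 (100 = complete control).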

lambsquarters = experiment: Test B pre-/postemergence herbicide test; format: in vivo, Chenopodium album; conditions: for Plant response rating, Lambsquarters: preemergence; for Lambsquarters plant response rating: postemergence, visual rating, scale 0 (no effect) to 100 (complete control)
Summary of the method: as §1

blackgrass = experiment: Test B postemergence herbicide test; format: in vivo, Alopecurus myosuroides; conditions: postemergence, visual rating, scale 0 (no effect) to 100 (complete control)
Summary of the method: as §2

ducksalad = experiment: Test B flooded paddy test; format: in vivo, Heteranthera limosa; conditions: 1000 g ai/ha, visual rating, scale 0 to 100 (0 no effect, 100 complete control), 13 to 15 days
Summary of the method: as §2

morningglory [8] = experiment: Test A pre-/postemergence herbicide test; format: in vivo, Ipomoea spp.
Summary of the method: as §4

corn = experiment: Test B pre-/postemergence herbicide test; format: in vivo, Zea mays; conditions: for Plant response rating, Corn: preemergence; for Corn plant response rating: postemergence, visual rating, scale 0 (no effect) to 100 (complete control)
Summary of the method: as §1

velvetleaf [9] = experiment: Test B pre-/postemergence herbicide test; format: in vivo, Abutilon theophrasti; conditions: for Plant response rating, Velvetleaf: preemergence; for Velvetleaf plant response rating: postemergence, visual rating, scale 0 (no effect) to 100 (complete control)
Summary of the method: as §1

rice [10] = experiment: Test B pre-/postemergence herbicide test; format: in vivo, Oryza sativa; conditions: preemergence
Summary of the method: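 Species tested were Echinochloa crus-galli, Ipomoea coccinea, Xanthium strumarium and Oryza sativa, treated both before emergence and at the 1- to 4-leaf stage; rice and barnyardgrass were also tested under flooding at 2 leaves. Greenhouse incubation lasted 13–15 days before visual 0–100 scoring.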

giant foxtail [11] = experiment: Test A pre-/postemergence herbicide test; format: in vivo, Setaria faberi
Summary of the method: as §4

wheat = experiment: Test B postemergence herbicide test; format: in vivo, Triticum aestivum; set-up: key to Wheat plant response rating: 0 = no effect, 100 = complete control; conditions: postemergence, 500 g ai/ha; visual rating, scale 0 (no effect) to 100 (complete control)
Summary of the method: as §5

large crabgrass [12] = experiment: Test B pre-/postemergence herbicide test; format: in vivo, Digitaria sanguinalis; conditions: for Plant response rating, Crabgrass, Large: preemergence; for Crabgrass, Large plant response rating: postemergence, visual rating, scale 0 (no effect) to 100 (complete control)
Summary of the method: as §1

cocklebur = experiment: Test B pre-/postemergence herbicide test; format: in vivo, Xanthium strumarium; conditions: for Plant response rating, Cocklebur: preemergence; for Cocklebur plant response rating: postemergence, visual rating, scale 0 (no effect) to 100 (complete control)
Summary of the method: as §3

barnyardgrass [13] = experiment: Test B pre-/postemergence herbicide test; format: in vivo, Echinochloa crus-galli; conditions: for Plant response rating, Barnyardgrass: preemergence; for Barnyardgrass plant response rating: postemergence, visual rating, scale 0 (no effect) to 100 (complete control)
Summary of the method: as §3

large crabgrass [14] = experiment: Test A pre-/postemergence herbicide test; format: in vivo, Digitaria sanguinalis
Summary of the method: as §4

[15] = 500 g ai/ha, visual rating 0-100, 0 no effect, 100 complete control
[16] = 125 g ai/ha, 0 to 100 scale, 0 is no effect, 100 is complete control
[17] = Postemergence, 500 g ai/ha, 0 to 100 scale, 0 no effect, 100 complete control
[18] = Postemergence, 2000 g ai/ha, 0 to 100 scale, 0 no effect, 100 complete control
[19] = Preemergence, 2000 g ai/ha, visual rating, 0 to 100 scale (0 no effect, 100 complete control)
[20] = preemergence, 500 g ai/ha, visual injury, 0 to 100 scale (0 no effect, 100 complete control)
[21] = Preemergence, 500 g ai/ha, visual rating, 0 to 100 scale (0 no effect, 100 complete control)

CCn1nc(C(C)(C)C)cc1C(=O)Nc1nccc(OC)n1 [Compound 165]
20: Plant response rating, Velvetleaf (velvetleaf [3]; [18]) | Pigweed plant response rating (redroot pigweed; [19])
0: Plant response rating, Surinam Grass (Surinam grass; [15]) | Surinam Grass plant response rating (Surinam grass; 125 g ai/ha) | Surinam Grass plant response rating (Surinam grass; 500 g ai/ha) | Plant response rating, Surinam Grass (Surinam grass; [16]) | Sedge, Umbrella plant response rating [1] | Plant response rating, Pigweed (pigweed; [15]) | Pigweed plant response rating (pigweed; 125 g ai/ha) | Pigweed plant response rating (pigweed; 500 g ai/ha) | Plant response rating, Pigweed (pigweed; [16]) | Plant response rating, Morningglory (morningglory [2]; [15]) | Morningglory plant response rating (morningglory [2]; 125 g ai/ha) | Morningglory plant response rating (morningglory [2]; 500 g ai/ha) | Plant response rating, Morningglory (morningglory [2]; [16]) | Velvetleaf plant response rating (velvetleaf [3]; [20]) | Plant response rating, Foxtail, Giant (giant foxtail [4]; [15]) | Foxtail, Giant plant response rating (giant foxtail [4]; 125 g ai/ha) | Foxtail, Giant plant response rating (giant foxtail [4]; 500 g ai/ha) | Plant response rating, Foxtail, Giant (giant foxtail [4]; [16]) | Barnyardgrass plant response rating (barnyardgrass [5]) | Barnyardgrass plant response rating (barnyardgrass [6]; [17]) | Plant response rating, Barnyardgrass (barnyardgrass [6]; [18]) | Barnyardgrass plant response rating (barnyardgrass [6]; [21]) | Barnyardgrass plant response rating (barnyardgrass [6]; [19]) | Pigweed plant response rating (redroot pigweed; [17]) | Pigweed plant response rating (redroot pigweed; [20]) | Oat, Wild plant response rating (wild oat; 125 g ai/ha) | Oat, Wild plant response rating (wild oat; 500 g ai/ha) | Rice plant response rating (rice [7]) | Plant response rating, Lambsquarters (lambsquarters; [15]) | Lambsquarters plant response rating (lambsquarters; 125 g ai/ha) | Lambsquarters plant response rating (lambsquarters; 500 g ai/ha) | Plant response rating, Lambsquarters (lambsquarters; [16]) | Blackgrass plant response rating (blackgrass; 125 g ai/ha) | Blackgrass plant response rating (blackgrass; 500 g ai/ha) | Ducksalad plant response rating (ducksalad) | Morningglory plant response rating (morningglory [8]; [21]) | Morningglory plant response rating (morningglory [8]; [19]) | Plant response rating, Corn (corn; [15]) | Corn plant response rating (corn; 125 g ai/ha) | Corn plant response rating (corn; 500 g ai/ha) | Plant response rating, Corn (corn; [16]) | Plant response rating, Velvetleaf (velvetleaf [9]; [15]) | Velvetleaf plant response rating (velvetleaf [9]; 125 g ai/ha) | Velvetleaf plant response rating (velvetleaf [9]; 500 g ai/ha) | Plant response rating, Velvetleaf (velvetleaf [9]; [16]) | Plant response rating, Rice (rice [10]; [15]) | Plant response rating, Rice (rice [10]; [16]) | Foxtail, Giant plant response rating (giant foxtail [11]; [17]) | Plant response rating, Foxtail, Giant (giant foxtail [11]; [18]) | Foxtail, Giant plant response rating (giant foxtail [11]; [21]) | Foxtail, Giant plant response rating (giant foxtail [11]; [19]) | Wheat plant response rating (wheat) | Plant response rating, Crabgrass, Large (large crabgrass [12]; [15]) | Crabgrass, Large plant response rating (large crabgrass [12]; 125 g ai/ha) | Crabgrass, Large plant response rating (large crabgrass [12]; 500 g ai/ha) | Plant response rating, Crabgrass, Large (large crabgrass [12]; [16]) | Plant response rating, Cocklebur (cocklebur; [15]) | Cocklebur plant response rating (cocklebur; 125 g ai/ha) | Cocklebur plant response rating (cocklebur; 500 g ai/ha) | Plant response rating, Cocklebur (cocklebur; [16]) | Plant response rating, Barnyardgrass (barnyardgrass [13]; [15]) | Barnyardgrass plant response rating (barnyardgrass [13]; 125 g ai/ha) | Barnyardgrass plant response rating (barnyardgrass [13]; 500 g ai/ha) | Plant response rating, Barnyardgrass (barnyardgrass [13]; [16]) | Crabgrass, Large plant response rating (large crabgrass [14]; [17]) | Plant response rating, Crabgrass, Large (large crabgrass [14]; [18]) | Crabgrass, Large plant response rating (large crabgrass [14]; [21]) | Crabgrass, Large plant response rating (large crabgrass [14]; [19])
5: Velvetleaf plant response rating (velvetleaf [3]; [19]) | Plant response rating, Pigweed (redroot pigweed; [18]) | Morningglory plant response rating (morningglory [8]; [17]) | Plant response rating, Morningglory (morningglory [8]; [18])
10: Velvetleaf plant response rating (velvetleaf [3]; [17])
